Assay results: US6489320B1, “5, 5-disubstituted-1, 5-dihydro-4, 1-benzoxazepin-2 (3H)-ones useful as HIV reverse transcriptase inhibitors” (Bristol-Myers Squibb Pharma Company, priority 1997, dated 2002)
Values joined by “and” are separate entries in the source; they are usually repeats but may differ in a detail not shown here. Identical values can stand only once. Counter-ions that a name gives are not always drawn.

O=C1COC(C#Cc2ccccc2)(C(F)(F)F)c2cc(Cl)ccc2N1 (centres unmarked) (as salt: sodium) [Example 16, 7-Chloro-5-phenylethynyl-1,5-dihydro-5-(trifluoromethyl)-4,1-benzoxazepin-2(3H)-one]
melting point: 190 to 191 °C

CC[C@@H]1O[C@](C#Cc2ccoc2)(C(F)(F)F)c2cc(Cl)ccc2NC1=O (relative stereo) (as salt: sodium) [Example 32, rel-(3S,5S)-7-Chloro-5-(3-furanylethynyl)-1,5-dihydro-3-ethyl-5-(trifluoromethyl)-4,1-benzoxazepin-2(3H)-one]
melting point: 169 to 170 °C

C[C@@H]1O[C@](/C=C/C2CC2)(C(F)(F)F)c2cc(Cl)ccc2NC1=O (relative stereo) [Example 6, rel-(3S,5S)-trans-7-Chloro-5-(2-cyclopropylethenyl)-1,5-dihydro-3-methyl-5-(trifluoromethyl)-4,1-benzoxazepin-2(3H)-one]
melting point: 171 to 172 °C

C[C@@H]1O[C@](/C=C/c2ccco2)(C(F)(F)F)c2cc(Cl)ccc2NC1=O (relative stereo) [Example 9, rel-(3S,5S)-trans-7-Chloro-1,5-dihydro-5-(2-furan-2-ylethenyl)-3-methyl-5-(trifluoromethyl)-4,1-benzoxazepin-2(3H)-one]
melting point: 205 to 206.5 °C

CCC[C@@H]1O[C@](C#CC2CC2)(C(F)(F)F)c2cc(Cl)ccc2NC1=O (relative stereo) [Example 14a, rel-(3S,5S)-7-Chloro-5-cyclopropylethynyl-1,5-dihydro-3-propyl-5-(trifluoromethyl)-4,1-benzoxazepin-2(3H)-one]
melting point: 191 to 192 °C

CCC[C@H]1O[C@](C#CC2CC2)(C(F)(F)F)c2cc(Cl)ccc2NC1=O (relative stereo) [Example 14b, rel-(3R,5S)-7-Chloro-5-cyclopropylethynyl-1,5-dihydro-3-propyl-5-(trifluoromethyl)-4,1-benzoxazepin-2(3H)-one]
melting point: 141 °C

CC(C)[C@@H]1O[C@](C#CC2CC2)(C(F)(F)F)c2cc(Cl)ccc2NC1=O (relative stereo) [Example 15, rel-(3S,5S)-7-Chloro-5-cyclopropylethynyl-1,5-dihydro-3-isopropyl-5-(trifluoromethyl)-4,1-benzoxazepin-2(3H)-one]
melting point: 167 °C

CC[C@@H]1O[C@](C#CC2CC2)(C(F)(F)F)c2cc(Cl)ccc2NC1=O (relative stereo) [Example 22, rel-(3S,5S)-7-Chloro-5-cyclopropylethynyl-1,5-dihydro-3-ethyl-5-(trifluoromethyl)-4,1-benzoxazepin-2(3H)-one]
melting point: 180 to 181 °C

CC[C@H]1O[C@](C#CC2CC2)(C(F)(F)F)c2cc(Cl)ccc2NC1=O (relative stereo) [Example 23, rel-(3R,5S)-7-Chloro-5-cyclopropylethynyl-1,5-dihydro-3-ethyl-5-(trifluoromethyl)-4,1-benzoxazepin-2(3H)-one]
melting point: 129 to 130 °C

CCC[C@@H]1O[C@](/C=C/C2CC2)(C(F)(F)F)c2cc(Cl)ccc2NC1=O (relative stereo) [Example 30, rel-(3S,5S)-trans-7-Chloro-5-(2-cyclopropylethenyl)-1,5-dihydro-3-propyl-5-(trifluoromethyl)-4,1-benzoxazepin-2(3H)-one]
melting point: 165 to 167 °C and 167 °C

CC[C@@H]1O[C@](/C=C/C2CC2)(C(F)(F)F)c2cc(Cl)ccc2NC1=O (relative stereo) [Example 38, rel-(3S,5S)-trans-7-Chloro-5-(2-cyclopropylethenyl)-1,5-dihydro-3-ethyl-5-(trifluoromethyl)-4,1-benzoxazepin-2(3H)-one]
melting point: 147 to 147.5 °C

C=C[C@@H]1O[C@](/C=C/C2CC2)(C(F)(F)F)c2cc(Cl)ccc2NC1=O (relative stereo) [Example 42, rel-(3S,5S)-trans-7-Chloro-5-(2-cyclopropylethenyl)-1,5-dihydro-3-ethenyl-5-(trifluoromethyl)-4,1-benzoxazepin-2(3H)-one]
melting point: 165.5 to 166.5 °C

O=C1Nc2ccc(Cl)cc2[C@@](/C=C/C2CC2)(C(F)(F)F)O[C@H]1C1CC1 (relative stereo) [Example 44, rel-(3S,5S)-trans-7-Chloro-5-(2-cyclopropylethenyl)-1,5-dihydro-3-cyclopropyl-5-(trifluoromethyl)-4,1-benzoxazepin-2(3H)-one]
melting point: 143 to 144 °C

C=C[C@@H]1O[C@](C#CC2CC2)(C(F)(F)F)c2c(ccc(F)c2F)NC1=O (relative stereo) [Example 45, rel-(3S,5S)-6,7-Difluoro-5-(2-cyclopropylethynyl)-1,5-dihydro-3-ethenyl-5-(trifluoromethyl)-4,1-benzoxazepin-2(3H)-one]
melting point: 171 to 172 °C

O=C1Nc2ccc(F)c(F)c2[C@@](C#CC2CC2)(C(F)(F)F)O[C@H]1C1CC1 (relative stereo) [Example 46, rel-(3S,5S)-6,7-Difluoro-5-(2-cyclopropylethynyl)-1,5-dihydro-3-cyclopropyl-5-(trifluoromethyl)-4,1-benzoxazepin-2(3H)-one]
melting point: 222 to 222.5 °C

C[C@@H]1O[C@](C#CC2CC2)(C(F)(F)F)c2cc(F)ccc2NC1=O (relative stereo) [Example 48, rel-(3S,5S)-7-Fluoro-5-(2-cyclopropylethynyl)-1,5-dihydro-3-methyl-5-(trifluoromethyl)-4,1-benzoxazepin-2(3H)-one]
melting point: 184 to 185 °C

CC[C@@H]1O[C@](C#CC2CC2)(C(F)(F)F)c2cc(F)ccc2NC1=O (relative stereo) [Example 49, rel-(3S,5S)-7-Fluoro-5-(2-cyclopropylethynyl)-1,5-dihydro-3-ethyl-5-(trifluoromethyl)-4,1-benzoxazepin-2(3H)-one]
melting point: 186 °C

C[C@@H]1O[C@](/C=C/C2CC2)(C(F)(F)F)c2cc(F)ccc2NC1=O (relative stereo) [Example 50, rel-(3S,5S)-trans-7-Fluoro-5-(2-cyclopropylethenyl)-1,5-dihydro-3-methyl-5-(trifluoromethyl)-4,1-benzoxazepin-2(3H)-one]
melting point: 180 to 182 °C

CC[C@@H]1O[C@](/C=C/C2CC2)(C(F)(F)F)c2cc(F)ccc2NC1=O (relative stereo) [Example 51, rel-(3S,5S)-trans-7-Fluoro-5-(2-cyclopropylethenyl)-1,5-dihydro-3-ethyl-5-(trifluoromethyl)-4,1-benzoxazepin-2(3H)-one]
melting point: 148 to 149 °C

C[C@@H]1O[C@](C#CC2CC2)(C(F)(F)F)c2c(ccc3c2OCO3)NC1=O (relative stereo) [Example 52, rel-(3S,5S)-6,7-Methylenedioxy-5-(2-cyclopropylethynyl)-1,5-dihydro-3-methyl-5-(trifluoromethyl)-4,1-benzoxazepin-2(3H)-one]
melting point: 252 °C

CC[C@@H]1O[C@](C#CC2CC2)(C(F)(F)F)c2c(ccc3c2OCO3)NC1=O (relative stereo) [Example 53, rel-(3S,5S)-6,7-Methylenedioxy-5-(2-cyclopropylethynyl)-1,5-dihydro-3-ethyl-5-(trifluoromethyl)-4,1-benzoxazepin-2(3H)-one]
melting point: 201 to 202 °C

C[C@@H]1O[C@](/C=C/C2CC2)(C(F)(F)F)c2c(ccc3c2OCO3)NC1=O (relative stereo) [Example 54, rel-(3S,5S)-trans-6,7-Methylenedioxy-5-(2-cyclopropylethenyl)-1,5-dihydro-3-methyl-5-(trifluoromethyl)-4,1-benzoxazepin-2(3H)-one]
melting point: 236 to 237 °C

CC[C@@H]1O[C@](/C=C/C2CC2)(C(F)(F)F)c2c(ccc3c2OCO3)NC1=O (relative stereo) [Example 55, rel-(3S,5S)-trans-6,7-Methylenedioxy-5-(2-cyclopropylethenyl)-1,5-dihydro-3-ethyl-5-(trifluoromethyl)-4,1-benzoxazepin-2(3H)-one]
melting point: 188 to 190 °C

CC(C)C#C[C@]1(C(F)(F)F)OCC(=O)Nc2ccc(Cl)cc21 (single isomer, unassigned) [Example 4]
melting point: 135 to 136 °C

CCC#CC1(C(F)(F)F)OCC(=O)Nc2ccc(Cl)cc21 (centres unmarked) [Example 1, 5-(1-Butynyl)-7-chloro-1,5-dihydro-5-(trifluoromethyl)-4,1-benzoxazepin-2(3H)-one]
melting point: 167 to 168 °C

CCC#CC1(C(F)(F)F)OC(c2ccccc2)C(=O)Nc2ccc(Cl)cc21 [Example 2, rel-(3S,5S)-5-(1-Butynyl)-7-chloro-1,5-dihydro-3-phenyl-5-(trifluormethyl)-4,1-benzoxazepin-2(3H)-one]
melting point: 198 to 199 °C

CC(C)C#CC1(C(F)(F)F)OCC(=O)Nc2ccc(Cl)cc21 (centres unmarked) [Example 3, 7-Chloro-1,5-dihydro-5-(isopropylethynyl)-5-(trifluoromethyl)-4,1-benzoxazepin-2(3H)-one]
melting point: 183 to 183.5 °C

O=C1COC(/C=C/C2CC2)(C(F)(F)F)c2cc(Cl)ccc2N1 (stereo not drawn) [Example 5, trans-7-Chloro-5-(2-cyclopropylethenyl)-1,5-dihydro-5-(trifluoromethyl)-4,1-benzoxazepin-2(3H)-one]
melting point: 157 to 158 °C

CC(C)C#CC1(C(F)(F)F)OCC(=O)Nc2ccc(F)cc21 (centres unmarked) [Example 7, 1,5-Dihydro-7-fluoro-5-isopropylethynyl-5-(trifluoromethyl)-4,1-benzoxazepin-2(3H)-one]
melting point: 172 to 173 °C

O=C1COC(/C=C/c2ccco2)(C(F)(F)F)c2cc(Cl)ccc2N1 (stereo not drawn) [Example 10, trans-7-Chloro-1,5-dihydro-5-(2-furan-2-yl)ethenyl-5-(trifluoromethyl)-4,1-benzoxazepin-2(3H)-one]
melting point: 199 to 200 °C

CC(C)C#CC1(C(F)(F)F)OCC(=O)Nc2ccc(F)c(F)c21 (centres unmarked) [Example 13, 6,7-Difluoro-1,5-dihydro-5-(isopropylethynyl)-5-(trifluoromethyl)-4,1-benzoxazepin-2(3H)-one]
melting point: 192.5 to 193.5 °C

O=C1COC(C#CC2CC2)(C(F)(F)F)c2cc(Cl)ccc2N1 (centres unmarked) [Example 18, 7-Chloro-5-cyclopropylethynyl-1,5-dihydro-5-(trifluoromethyl)-4,1-benzoxazepin-2(3H)-one]
melting point: 199.5 to 200.5 °C
